Test results reported in patent US6699854B2, “Anti-cancer compounds” (Cyclacel Limited, priority 2000, dated 2004).

Experiments:
A549 = assay: 72-h MTT cytotoxicity assay, A549; type: cell-based, human; conditions: Homo sapiens, Table 4, additional data for cytotoxicity assay using the A549 cell line; read-out: A549
Description: Selected compounds from the above examples were subjected to a standard cellular proliferation assay using a range of different human tumour cell lines. Standard 72-h MTT (thiazolyl blue; 3-{4,5-dimethylthiazol-2-yl}-2,5-diphenyltetrazolium bromide) assays were performed (Haselsberger, K.; Peterson, D. C.; Thomas, D. G.; Darling, J. L. Anti Cancer Drugs 1996, 7, 331-8; Loveland, B. E.; Johns, T. G.; Mackay, I. R.; Vaillant, F.; Wang, Z. X.; Hertzog, P. J. Biochemistry International 1992, 27, 501-10). Human tumour cell lines were obtained from the ATCC (American Type Culture Collection, 10801 University Boulevard, Manessas, Va. 20110-2209, USA).

CDK2/cyclin E = target: T1, CDK2/cyclin E (Homo sapiens, UniProt P24941); assay: CDK2/cyclin E kinase assay (GST-Rb phosphorylation); type: biochemical; conditions: Table 2, further results for CDK2/cyclin E inhibition; read-out: CDK2/cyclin E;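 note: enzyme source: His-tagged CDK2/cyclin E co-expressed in Sf9 insect cells via baculovirus, then purified by metal-chelate chromatography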
T1 construct: His; made in house; host or cells: Sf9 insect cells (baculovirus)

| Compound | IC50 (CDK2/cyclin E) | IC50 (A549) |
| --- | --- | --- |
| COc1cccc(Nc2nccc(-c3sc(C)nc3C)n2)c1 [Compound 38, {4-(2,4-Dimethyl-thiazol-5-yl)-pyrimidin-2-yl}-(3-methoxy-phenyl)-amine] | 400 ± 300 nM | 4.5 ± 1.6 µM |
| COc1ccc(Nc2nccc(-c3sc(C)nc3C)n2)cc1 [Compound 39, {4-(2,4-Dimethyl-thiazol-5-yl)-pyrimidin-2-yl}-(4-methoxy-phenyl)-amine] | 220 ± 70 nM | 0.3 µM |
| Cc1nc(C)c(-c2ccnc(Nc3ccc(O)c([N+](=O)[O-])c3)n2)s1 [Compound 45, 4-{4-(2,4-Dimethyl-thiazol-5-yl)-pyrimidin-2-ylamino}-2-nitro-phenol] | 210 ± 160 nM | 3.3 ± 0.5 µM |
| COC(=O)c1ccc(Nc2nccc(-c3sc(C)nc3C)n2)cc1 [Compound 50, 4-{4-(2,4-Dimethyl-thiazol-5-yl)-pyrimidin-2-ylamino}-benzoic acid methyl ester] | 300 nM | 8.8 ± 10 µM |
| Cc1nc(C)c(-c2ccnc(Nc3ccc(C)c(Cl)c3)n2)s1 [Compound 51, (3-Chloro-4-methyl-phenyl)-{4-(2,4-dimethyl-thiazol-5-yl)-pyrimidin-2-yl}-amine] | 750 nM | 0.3 ± 0.3 µM |
| Cc1nc(C)c(-c2ccnc(Nc3ccc(C(=O)O)cc3)n2)s1 [Compound 53, 4-{4-(2,4-Dimethyl-thiazol-5-yl)-pyrimidin-2-ylamino}-benzoic acid] | 700 ± 400 nM | 12 ± 5 µM |
| Cc1nc(-c2ccccc2)sc1-c1ccnc(Nc2ccc(O)cc2)n1 [Compound 60, 4-{4-(4-Methyl-2-phenyl-thiazol-5-yl)-pyrimidin-2-ylamino}-phenol] | 4000 nM | 2.1 ± 0.3 µM |
| CNc1nc(C)c(-c2ccnc(Nc3ccc(I)cc3)n2)s1 [Compound 72, (4-Iodo-phenyl)-{4-(4-methyl-2-methylamino-thiazol-5-yl)-pyrimidin-2-yl}-amine] | 900 nM | 0.8 ± 0.5 µM |
| CNc1nc(C)c(-c2ccnc(Nc3cccc([N+](=O)[O-])c3)n2)s1 [Compound 76, (4-{4-Methyl-2-methylamino-thiazol-5-yl)-pyrimidin-2-yl}-(3-nitro-phenyl)-amine] | 800 nM | 3 ± 0.9 µM |

Now those with a lower IC50 (CDK2/cyclin E), led by results:

| IC50 (CDK2/cyclin E) | Compound | IC50 (A549) |
| --- | --- | --- |
| 200 nM | CNc1nc(C)c(-c2ccnc(Nc3ccc(O)c([N+](=O)[O-])c3)n2)s1 [Compound 73, 4-{4-(4-Methyl-2-methylamino-thiazol-5-yl)-pyrimidin-2-ylamino}-2-nitro-phenol] | 9 ± 4 µM |
| 200 nM | CCNc1nc(C)c(-c2ccnc(Nc3ccc(F)cc3)n2)s1 [Compound 75, {4-(2-Ethylamino-4-methyl-thiazol-5-yl)-pyrimidin-2-yl}-(4-fluoro-phenyl)-amine] | 3.2 ± 0.4 µM |
| 100 nM | CCOC(=O)c1ccc(Nc2nccc(-c3sc(NC)nc3C)n2)cc1Cl [Compound 74, 2-Chloro-4-{4-(4-methyl-2-methylamino-thiazol-5-yl)-pyrimidin-2-ylamino}-benzoic acid ethyl ester] | 18 ± 4 µM |
| 60 nM | COc1ccc(Nc2nccc(-c3sc(C)nc3C)n2)cc1Cl [Compound 52, (3-Chloro-4-methoxy-phenyl)-{4-(2,4-dimethyl-thiazol-5-yl)-pyrimidin-2-yl}-amine] | 0.8 ± 0.3 µM |
| 60 ± 30 nM | CNc1nc(C)c(-c2ccnc(Nc3ccc(F)cc3)n2)s1 [Compound 62, (4-Fluoro-phenyl)-{4-(4-methyl-2-methylamino-thiazol-5-yl)-pyrimidin-2-yl}-amine] | 1.1 ± 0.2 µM |
| 30 nM | Cc1nc(C)c(-c2ccnc(Nc3ccc(C#N)cc3)n2)s1 [Compound 48, 4-{4-(2,4-Dimethyl-thiazol-5-yl)-pyrimidin-2-ylamino}-benzonitrile] | 6.7 ± 1.1 µM |
| 20 nM | Cc1nc(C)c(-c2ccnc(Nc3cccc(C#N)c3)n2)s1 [Compound 49, 3-{4-(2,4-Dimethyl-thiazol-5-yl)-pyrimidin-2-ylamino}-benzonitrile] | 2.2 ± 0.02 µM |
